Laboratory results published in paper PMC8778818, “Synthesis, Structural Characterization and Anticancer Activity of New 5-Trifluoromethyl-2-thioxo-thiazolo[4,5-d]pyrimidine Derivatives” (Pharmaceuticals, 2022).
Where “and” joins values, the source holds several entries; their conditions need not be identical. Identical values can stand only once. Like-named read-outs stand apart in the source and are kept apart here.

What was measured:
SF-539 = assay: NCI-60 screen, CNS Cancer SF-539; format: cell-based, human
HT29 = assay: NCI-60 screen, Colon Cancer HT29; format: cell-based, human
U251 = assay: NCI-60 screen, CNS Cancer U251; format: cell-based, human; conditions: U251, five doses 10^−4–10^−8 M
BT-549 = assay: NCI-60 screen, Breast Cancer BT-549; format: cell-based, human
A498 = assay: NCI-60 screen, Renal Cancer A498; format: cell-based, human
MOLT-4 = assay: NCI-60 screen, Leukemia MOLT-4; format: cell-based, human
NCI/ADR-RES = assay: NCI-60 screen, Ovarian Cancer NCI/ADR-RES; format: cell-based, human
TK-10 = assay: NCI-60 screen, Renal Cancer TK-10; format: cell-based, human
OVCAR-8 = assay: NCI-60 screen, Ovarian Cancer OVCAR-8; format: cell-based, human
COLO-205 = assay: NCI-60 screen, Colon Cancer COLO-205; format: cell-based, human
SN12C = assay: NCI-60 screen, Renal Cancer SN12C; format: cell-based
MDA-MB-231/ATCC = assay: NCI-60 screen, Breast Cancer MDA-MB-231/ATCC; format: cell-based
NCI-H460 = assay: NCI-60 screen, Non-Small Cell Lung Cancer NCI-H460; format: cell-based, human
OVCAR-4 = assay: NCI-60 screen, Ovarian Cancer OVCAR-4; format: cell-based, human
HCT-15 = assay: NCI-60 screen, Colon Cancer HCT-15; format: cell-based
[1] = tested on: 60 human cancer cell lines; assay: NCI-60 anticancer screen, full panel; format: cell-based
SF-268 = assay: NCI-60 screen, CNS Cancer SF-268; format: cell-based, human
HOP-62 = assay: NCI-60 screen, Non-Small Cell Lung Cancer HOP-62; format: cell-based
786-0 = assay: NCI-60 screen, Renal Cancer 786-0; format: cell-based
NCI-H226 = assay: NCI-60 screen, Non-Small Cell Lung Cancer NCI-H226; format: cell-based, human
PC-3 = assay: NCI-60 screen, Prostate C. PC-3; format: cell-based
OVCAR-5 = assay: NCI-60 screen, Ovarian Cancer OVCAR-5; format: cell-based, human
HL-60(TB) = assay: NCI-60 screen, Leukemia HL-60(TB); format: cell-based, human
SK-OV-3 = assay: NCI-60 screen, Ovarian Cancer SK-OV-3; format: cell-based, human
IGROV1 = assay: NCI-60 screen, Ovarian Cancer IGROV1; format: cell-based
[2] = Homo sapiens, MOLT-4, five doses 10^−4–10^−8 M
[3] = Homo sapiens, five doses 10^−4–10^−8 M
[4] = Homo sapiens, five doses 10^−4–10^−8 M, read-out: log LC50 (the source's name) (converted)
[5] = Homo sapiens, COLO-205, five doses 10^−4–10^−8 M
[6] = over the panel, values > −4.00 excluded

Structure (SMILES): FC(F)(F)c1nc(Cl)c2sc(=S)n(-c3ccccc3)c2n1 [Compound 3b, 7-chloro-3-phenyl-5-(trifluoromethyl)[1, 3]thiazolo[4,5-d]pyrimidine-2(3H)-thione]
- GI50 (SF-539; Homo sapiens, SF-539, five doses 10^−4–10^−8 M): 1.66 µM
- CC50 (SF-539; Homo sapiens, SF-539, five doses 10^−4–10^−8 M, read-out: log LC50 (the source's name) (converted)): 5.89 µM
- Growth of Cells (%) (SF-539; SF-539, 10^−5 M one dose): 75.80%
- log TGI (SF-539; SF-539, five doses 10^−4–10^−8 M): −5.50 log M
- Growth of Cells (%) (HT29; HT29, 10^−5 M one dose): −71.75%
- log TGI (HT29; HT29, five doses 10^−4–10^−8 M): −5.40 log M
- GI50 (HT29; Homo sapiens, HT-29, HT29, five doses 10^−4–10^−8 M): 1.91 µM
- GI50 (U251; Homo sapiens, U-251): 1.74 µM
- LC50 (lethal concentration 50%) (U251; Homo sapiens, U-251): 5.75 µM
- log TGI (U251): −5.50 log M
- Growth of Cells (%) (BT-549; BT-549, 10^−5 M one dose): 73.90%
- log TGI (BT-549; BT-549, five doses 10^−4–10^−8 M): −5.50 log M
- GI50 (BT-549; Homo sapiens, BT-549, five doses 10^−4–10^−8 M): 1.51 µM
- CC50 (BT-549; Homo sapiens, BT-549, five doses 10^−4–10^−8 M, read-out: log LC50 (the source's name) (converted)): 6.76 µM
- Growth of Cells (%) (A498; A498, 10^−5 M one dose): 91.46%
- log TGI (A498; A498, five doses 10^−4–10^−8 M): −4.57 log M
- GI50 (A498; Homo sapiens, A498, five doses 10^−4–10^−8 M): 13.5 µM
- CC50 (A498; Homo sapiens, A498, five doses 10^−4–10^−8 M, read-out: log LC50 (the source's name) (converted)): 52.5 µM
- GI50 (MOLT-4; [2]): 3.09 µM
- LC50 (MOLT-4; [2]): > 100 µM
- Growth of Cells (%) (MOLT-4; MOLT-4, 10^−5 M one dose): −27.71%
- log TGI (MOLT-4; MOLT-4, five doses 10^−4–10^−8 M): −5.07 log M
- Growth of Cells (%) (NCI/ADR-RES; 10^−5 M one dose): 109.92%
- GI50 (NCI/ADR-RES; [3]): 3.31 µM
- CC50 (NCI/ADR-RES; [4]): > 100 µM
- log TGI (NCI/ADR-RES; five doses 10^−4–10^−8 M): −4.96 log M
- GI50 (TK-10; Homo sapiens, TK-10, five doses 10^−4–10^−8 M): 2 µM
- CC50 (TK-10; Homo sapiens, TK-10, five doses 10^−4–10^−8 M, read-out: log LC50 (the source's name) (converted)): 8.32 µM
- Growth of Cells (%) (TK-10; TK-10, 10^−5 M one dose): 51.24%
- log TGI (TK-10; TK-10, five doses 10^−4–10^−8 M): −5.39 log M
- GI50 (OVCAR-8; Homo sapiens, OVCAR-8, five doses 10^−4–10^−8 M): 1.95 µM
- CC50 (OVCAR-8; Homo sapiens, OVCAR-8, five doses 10^−4–10^−8 M, read-out: log LC50 (the source's name) (converted)): > 100 µM
- Growth of Cells (%) (OVCAR-8; OVCAR-8, 10^−5 M one dose): 4.40%
- log TGI (OVCAR-8; OVCAR-8, five doses 10^−4–10^−8 M): −5.27 log M
- Growth of Cells (%) (COLO-205; COLO-205, 10^−5 M one dose): 30.63%
- log TGI (COLO-205; COLO-205, five doses 10^−4–10^−8 M): −5.44 log M
- GI50 (COLO-205; [5]): 1.95 µM
- LC50 (COLO-205; [5]): 6.61 µM
- Growth of Cells (%) (SN12C; 10^−5 M one dose): 85.61%
- CC50 (SN12C; [4]): 40.7 µM
- GI50 (SN12C; Homo sapiens, read-out: log GI50 (converted)): 3.55 µM
- log TGI (SN12C; five doses 10^−4–10^−8 M): −4.88 log M
- GI50 (MDA-MB-231/ATCC; Homo sapiens, MDA-MB-231, read-out: log GI50 (converted)): 2 µM
- CC50 (MDA-MB-231/ATCC; Homo sapiens, MDA-MB-231/ATCC, five doses 10^−4–10^−8 M, read-out: log LC50 (the source's name) (converted)): 7.59 µM
- Growth of Cells (%) (MDA-MB-231/ATCC; MDA-MB-231/ATCC, 10^−5 M one dose): 13.85%
- log TGI (MDA-MB-231/ATCC; MDA-MB-231/ATCC, five doses 10^−4–10^−8 M): −5.41 log M
- GI50 (NCI-H460; Homo sapiens, NCI-H460, five doses 10^−4–10^−8 M): 3.24 µM
- CC50 (NCI-H460; Homo sapiens, NCI-H460, five doses 10^−4–10^−8 M, read-out: log LC50 (the source's name) (converted)): 50.1 µM
- Growth of Cells (%) (NCI-H460; NCI-H460, 10^−5 M one dose): 68.89%
- log TGI (NCI-H460; NCI-H460, five doses 10^−4–10^−8 M): −4.99 log M
- Growth of Cells (%) (M14; M14, 10^−5 M one dose): 26.96%
- log TGI (M14; M14, five doses 10^−4–10^−8 M): −5.39 log M
- GI50 (OVCAR-4; Homo sapiens, OVCAR-4, five doses 10^−4–10^−8 M): 1.78 µM
- CC50 (OVCAR-4; Homo sapiens, OVCAR-4, five doses 10^−4–10^−8 M, read-out: log LC50 (the source's name) (converted)): 7.24 µM
- Growth of Cells (%) (OVCAR-4; OVCAR-4, 10^−5 M one dose): 23.73%
- log TGI (OVCAR-4; OVCAR-4, five doses 10^−4–10^−8 M): −5.44 log M
- Growth of Cells (%) (HCT-15; HCT-15, 10^−5 M one dose): 2.98%
- log TGI (HCT-15; HCT-15, five doses 10^−4–10^−8 M): −5.26 log M
- GI50 (HCT-15; Homo sapiens, HCT-15, read-out: log GI50 (converted)): 1.86 µM
- CC50 (HCT-15; Homo sapiens, HCT-15, five doses 10^−4–10^−8 M, read-out: log LC50 (the source's name) (converted)): > 100 µM
- Mean Growth % ([1]; 10^−5 M one dose, mean over the panel): 29.51%
- GI50 ([1]; Homo sapiens, five doses 10^−4–10^−8 M, mean graph midpoint over all tested cell lines, read-out: log GI50 Mean MG_MID (converted)): 2.19 µM
- CC50 ([1]; Homo sapiens, five doses 10^−4–10^−8 M, mean graph midpoint over all tested cell lines, read-out: log LC50 Mean MG_MID (converted)): 16.6 µM
- CC50 ([1]; Homo sapiens, one number printed for the pair, read-out: log LC50 MG_MID/Δ (converted)): 16.6 µM
- log TGI Mean MG_MID ([1]; five doses 10^−4–10^−8 M, mean graph midpoint over all tested cell lines): −5.30 log M and −5.3 log M
- N2: number of cell lines giving positive log TGI (≤−4.01) ([1]; of N = 58 tested cell lines): 58
- log GI50 Range [1, 6]: −4.86 to −6.69 log M
- log LC50 Range [1, 6]: −4.03 to −5.82 log M
- log TGI Range [1, 6]: −4.31 to −6.33 log M
- GI50 (SF-268; Homo sapiens, SF-268, five doses 10^−4–10^−8 M): 1.78 µM
- CC50 (SF-268; Homo sapiens, SF-268, five doses 10^−4–10^−8 M, read-out: log LC50 (the source's name) (converted)): 6.61 µM
- Growth of Cells (%) (SF-268; SF-268, 10^−5 M one dose): 84.73%
- Growth of Cells (%) (HOP-62; HOP-62, 10^−5 M one dose): 95.98%
- log TGI (HOP-62; HOP-62, five doses 10^−4–10^−8 M): −5.46 log M
- GI50 (HOP-62; Homo sapiens, HOP-62, read-out: log GI50 (converted)): 1.86 µM
- CC50 (HOP-62; Homo sapiens, HOP-62, five doses 10^−4–10^−8 M, read-out: log LC50 (the source's name) (converted)): 6.31 µM
- Growth of Cells (%) (786-0; 786-0, 10^−5 M one dose): 90.12%
- log TGI (786-0; 786-0, five doses 10^−4–10^−8 M): −5.42 log M
- GI50 (786-0; Homo sapiens, 786-0, five doses 10^−4–10^−8 M): 1.95 µM
- CC50 (786-0; Homo sapiens, 786-0, five doses 10^−4–10^−8 M, read-out: log LC50 (the source's name) (converted)): 7.41 µM
- GI50 (NCI-H226; Homo sapiens, NCI-H226, five doses 10^−4–10^−8 M): 13.8 µM
- CC50 (NCI-H226; Homo sapiens, NCI-H226, five doses 10^−4–10^−8 M, read-out: log LC50 (the source's name) (converted)): > 100 µM
- Growth of Cells (%) (NCI-H226; NCI-H226, 10^−5 M one dose): 89.12%
- log TGI (NCI-H226; NCI-H226, five doses 10^−4–10^−8 M): −4.31 log M
- GI50 (PC-3; Homo sapiens, PC-3, five doses 10^−4–10^−8 M): 1.82 µM
- CC50 (PC-3; Homo sapiens, PC-3, five doses 10^−4–10^−8 M, read-out: log LC50 (the source's name) (converted)): 6.76 µM
- Growth of Cells (%) (PC-3; PC-3, 10^−5 M one dose): 53.66%
- log TGI (PC-3; PC-3, five doses 10^−4–10^−8 M): −5.45 log M
- GI50 (OVCAR-5; Homo sapiens, OVCAR-5, five doses 10^−4–10^−8 M): 8.71 µM
- CC50 (OVCAR-5; Homo sapiens, OVCAR-5, five doses 10^−4–10^−8 M, read-out: log LC50 (the source's name) (converted)): 64.6 µM
- Growth of Cells (%) (OVCAR-5; OVCAR-5, 10^−5 M one dose): 86.56%
- log TGI (OVCAR-5; OVCAR-5, five doses 10^−4–10^−8 M): −4.60 log M
- Growth of Cells (%) (HL-60(TB); 10^−5 M one dose): −41.20%
- GI50 (HL-60(TB); [3]): 1.55 µM
- log TGI (HL-60(TB); five doses 10^−4–10^−8 M): −5.41 log M
- GI50 (SK-OV-3; Homo sapiens, SK-OV-3, five doses 10^−4–10^−8 M): 4.9 µM
- CC50 (SK-OV-3; Homo sapiens, SK-OV-3, five doses 10^−4–10^−8 M, read-out: log LC50 (the source's name) (converted)): > 100 µM
- Growth of Cells (%) (SK-OV-3; SK-OV-3, 10^−5 M one dose): 101.94%
- log TGI (SK-OV-3; SK-OV-3, five doses 10^−4–10^−8 M): −4.97 log M
- GI50 (IGROV1; Homo sapiens, IGROV-1, IGROV1, five doses 10^−4–10^−8 M): 1.95 µM
- CC50 (IGROV1; Homo sapiens, IGROV-1, IGROV1, five doses 10^−4–10^−8 M, read-out: log LC50 (the source's name) (converted)): 7.59 µM
- Growth of Cells (%) (IGROV1; IGROV1, 10^−5 M one dose): 63.57%
- log TGI (IGROV1; IGROV1, five doses 10^−4–10^−8 M): −5.41 log M
